The values that follow are results of earlier work, collected in patent US20250186477A1, “COMPOSITIONS COMPRISING FLUDARABINE PHOSPHATE AND METHODS OF MAKING AND USING SAME TO TREAT CANCER” (Areva Pharmaceuticals Limited, priority 2023, published 2025).

The conditions of the data set: refractory chronic lymphocytic leukemia patients receiving 22-40 mg/m^2 or 15-25 mg/m^2 fludarabine daily.

Regarding `Nc1nc(F)nc2c1ncn2[C@@H]1O[C@H](CO)[C@@H](O)[C@@H]1O` [fludarabine, (2R,3S,4S,5R)-2-(6-amino-2-fluoropurin-9-yl)-5-(hydroxymethyl)oxolane-3,4-diol], the pneumonia entry was “high rates of pneumonia”.
